The target of one assay is T1, HCV RNA-dependent RNA polymerase (NS5B protein) (Hepatitis C virus genotype 1b, UniProt P26663).
T1 construct: The cDNA encoding the entire NS5B protein of HCV-Bk strain, genotype 1b; initiator Met (ATG added before the NS5B coding region) (N); made in house; host or cells: Sf9 insect cells, recombinant baculovirus (pBlueBacII, BacNS5B)
T1 sequence (P26663 2420-3010): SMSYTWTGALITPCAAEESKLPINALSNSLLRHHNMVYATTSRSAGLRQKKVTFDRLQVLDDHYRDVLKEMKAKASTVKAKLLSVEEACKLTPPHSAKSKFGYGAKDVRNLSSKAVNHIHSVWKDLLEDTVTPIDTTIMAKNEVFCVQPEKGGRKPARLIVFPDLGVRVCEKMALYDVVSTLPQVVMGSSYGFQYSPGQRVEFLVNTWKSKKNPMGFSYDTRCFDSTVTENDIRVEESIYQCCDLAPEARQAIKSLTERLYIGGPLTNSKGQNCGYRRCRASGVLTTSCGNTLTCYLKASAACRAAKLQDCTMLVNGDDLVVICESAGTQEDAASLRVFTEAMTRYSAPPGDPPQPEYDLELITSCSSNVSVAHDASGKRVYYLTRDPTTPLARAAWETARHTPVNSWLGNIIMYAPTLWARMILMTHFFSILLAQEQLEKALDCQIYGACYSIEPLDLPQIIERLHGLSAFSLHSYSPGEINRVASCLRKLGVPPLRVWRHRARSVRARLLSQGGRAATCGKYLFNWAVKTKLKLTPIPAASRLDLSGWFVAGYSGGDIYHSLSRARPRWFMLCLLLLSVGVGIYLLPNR
Kind of assay: HCV RNA-dependent RNA polymerase assay (in vitro RdRp assay, heteropolymeric RNA template). To be noted: natural NTP substrates of purified NS5B in the RdRp assay. The class given is biochemical, HCV-Bk strain. Here is the method: Compounds were evaluated using an in vitro polymerase assay containing purified recombinant HCV RNA-dependent RNA polymerase (NS5B protein). HCV NS5B was expressed in insect cells using a recombinant baculovirus as vector. The experimental procedures used for the cloning, expression and purification of the HCV NS5B protein are described below. Following are details of the RNA-dependent RNA polymerase assays used to test the compounds.
The cDNA encoding the entire NS5B protein of HCV-Bk strain, genotype 1b, was amplified by PCR using a plasmid containing a cDNA version of the full-length HCV genome as template. The oligonucleotides used to amplify this HCV region were designed to introduce a NheI site followed by an ATG at the 5′ end of the NS5B coding region as well as a BamHI site at the 3′end immediately downstream of the translation stop codon. The amplified sequence, of 1.8 kb, was digested with NheI and BamHI and ligated to a predigested pBlueBacII plasmid (Invitrogen). The resulting recombinant plasmid was designated pBac/NS5B. Sf9 cells were co-transfected with 3 μg of pBac/NS5B, together with 1 μg of linearized baculovirus DNA (Invitrogen), as described in the manufacturer's protocol. Following two rounds of plaque purification, an NS5B-recombinant baculovirus, BacNS5B, was isolated. The presence of the recombinant NS5B protein was determined by western blot analysis (Harlow and Lane, 1988) of BacNS5B-infected Sf9 cells, using a HCV NS5B specific rabbit polyclonal antiserum (anti-NS5B). Infections of Sf9 cells with this plaque purified virus were performed in one-liter spinner flasks at a cell density of 1.2×10^6 cells/ml and a multiplicity of infection of 5.
Sf9 cells were infected as described above. Sixty hours post-infection, cells were harvested then washed twice with phosphate buffer saline (PBS). Total proteins were solubilized as described in Lohmann et al. […] with some modifications. In brief, proteins were extracted in three steps, S1, S2, S3, using lysis buffers (LB) I, LB II and LB III (Lohmann et al, 1997). The composition of LBII was modified to contain 0.1% triton X-100 and 150 mM NaCl to reduce the amount of solubilized NS5B protein at this step. In addition, sonication of cell extracts was avoided throughout the protocol to preserve the integrity of the protein structure.
Soluble NS5B protein in the S3 fraction was diluted to lower the NaCl concentration to 300 mM, then it incubated batchwise with DEAE sepharose beads (Amersham-Pharmacia) for 2 hrs at […], as described by Behrens et al. (1989). Unbound material was cleared by centrifugation for 15 min at 4° C., at 25 000 rpm using a SW41 rotor (Beckman). The supernatant was further diluted to lower the NaCl concentration to 200 mM and subsequently loaded, with a flow rate of 1 ml/min, on a 5 ml HiTrap® heparin column (Amersham-Pharmacia) connected to an FPLC® system (Amersham-Pharmacia). Bound proteins were eluted in 1 ml fractions, using a continuous NaCl gradient of 0.2 to 1 M, over a 25 ml volume. NS5B-containing fractions were identified by sodium dodecyl sulfate polyacrylamide gel electrophoresis (SDS-PAGE), followed by western blotting using the anti-NS5B antiserum at a dilution of 1:2000. Positive fractions were pooled and the elution buffer was exchanged against a 50 mM NaPO4 pH 7.0, 20% glycerol, 0.5% triton X-100 and 10 mM DTT, using a PD-10 column (Amersham-Pharmacia). The sample was then loaded onto a 1 ml HiTrap® SP column (Amersham-Pharmacia), with a flow rate of 0.1 ml/min. Bound proteins were eluted using a continuous 0 to 1 M NaCl gradient over a 15 ml volume. Eluted fractions were analyzed by SDS-PAGE and western blotting. Alternatively, proteins were visualized, following SDS-PAGE, by silver staining using the Silver Stain Plus kit (BiORad) as described by the manufacturer.
RdRp assays were conducted using in vitro transcribed heteropolymeric RNA templates. […]
Consider `Nc1ncnc2c1ncn2[C@@H]1O[C@H](COP(=O)(O)OP(=O)(O)OP(=O)(O)O)[C@@H](O)[C@H]1O` [ATP, reference compound], for which the “measured Kms for the four substrates” value amounted to 18 µM.
Still for that read-out and setting: the figure for `Nc1ccn([C@@H]2O[C@H](COP(=O)(O)OP(=O)(O)OP(=O)(O)O)[C@@H](O)[C@H]2O)c(=O)n1` [CTP, reference compound] is 0.5 µM; for `Nc1nc2c(ncn2[C@@H]2O[C@H](COP(=O)(O)OP(=O)(O)OP(=O)(O)O)[C@@H](O)[C@H]2O)c(=O)[nH]1` [GTP, reference compound] it is 0.5 µM; for `O=c1ccn([C@@H]2O[C@H](COP(=O)(O)OP(=O)(O)OP(=O)(O)O)[C@@H](O)[C@H]2O)c(=O)[nH]1` [UTP, reference compound] it is 1.2 µM.

Still in this assay, the particulars now being: purified recombinant NS5B 200 ng; competing NTP at twice Km, other NTPs 100 μM; 2 h at 22° C.; triphosphate form tested.
The IC50 is the midpoint of a concentration-inhibition curve. “6-Chloro- 3′-deoxyguanosine- 5′triphosphate [COMPOUND#32]”: the IC50 turned out to be 6.8 µM.
Take `Nc1ccn([C@@H]2O[C@H](COP(=O)(O)OP(=O)(O)OP(=O)(O)O)C[C@H]2O)c(=O)n1` [COMPOUND#2, 3′-deoxycytidine-5′triphosphate]: the IC50 was determined as 0.036 µM.
In the case of `Nc1nc(=O)n([C@@H]2O[C@H](COP(=O)(O)OP(=O)(O)OP(=O)(O)O)C[C@H]2O)cc1F` [COMPOUND#4, 5-Fluoro-3′-deoxycytidine-5′triphosphate], the IC50 was found to be 0.3 µM.
Same read-out and setting: the figure for `O=c1ccn([C@@H]2O[C@H](COP(=O)(O)OP(=O)(O)OP(=O)(O)O)C[C@H]2O)c(=O)[nH]1` [COMPOUND#6, 3′-deoxyuridine-5′triphosphate] is 0.26 µM; for `O=c1[nH]c(=O)n([C@@H]2O[C@H](COP(=O)(O)OP(=O)(O)OP(=O)(O)O)C[C@H]2O)cc1F` [COMPOUND#8, 5-Fluoro-3′-deoxyuridine-5′triphosphate] it is 1.98 µM; for `Cc1cn([C@H]2CC[C@@H](COP(=O)(O)OP(=O)(O)OP(=O)(O)O)O2)c(=O)[nH]c1=O` [COMPOUND#10, 3′-deoxythymidine-5′triphosphate] it is 6.4 µM.
Same read-out and setting: the figure for `Nc1nc2c(ncn2[C@@H]2O[C@H](COP(=O)(O)OP(=O)(O)OP(=O)(O)O)C[C@H]2O)c(=O)[nH]1` [COMPOUND#12, 3′-deoxyguanosine-5′triphosphate] is 0.048 µM; for `CC(=O)Nc1nc2c(ncn2[C@@H]2O[C@H](COP(=O)(O)OP(=O)(O)OP(=O)(O)O)C[C@H]2O)c(=O)[nH]1` [COMPOUND#14, 2-N-acetyl-3′-deoxyguanosine-5′triphosphate] it is 3.1 µM.
Same read-out and setting: the figure for `Cc1cn([C@@H]2O[C@H](COP(=O)(O)OP(=O)(O)OP(=O)(O)O)C[C@H]2O)c(=O)nc1N` [COMPOUND#16, 5-Methyl-3′-deoxycytidine-5′triphosphate] is 0.36 µM; for `Nc1nc(=O)n([C@@H]2O[C@H](COP(=O)(O)OP(=O)(O)OP(=O)(O)O)C[C@H]2O)cc1I` [COMPOUND#18, 5-Iodo-3′-deoxycytidine-5′triphosphate] it is 6.88 µM.
With `Nc1nc(=O)n([C@@H]2O[C@H](COP(=O)(O)OP(=O)(O)OP(=O)(O)O)C[C@H]2O)cc1Cl` [COMPOUND#20, 5- = Chloro-3′-deoxycytidine-5′triphosphate], the IC50 was found to be 0.18 µM.
In the case of `Nc1nc(O)c2ncn([C@@H]3O[C@H](COP(=O)(O)OP(=O)(O)OP(=O)(O)O)[C@@H](F)[C@H]3O)c2n1` [COMPOUND#22, 3′-fluoro-3′-deoxyguanosine-5′triphosphate], the IC50 is 0.12 µM.
Still for that read-out and setting: the figure for `Nc1ccn([C@@H]2O[C@H](COP(=O)(O)OP(=O)(O)OP(=O)(O)O)[C@@H](F)[C@H]2O)c(=O)n1` [COMPOUND#24, 3′-fluoro-3′-deoxycytidine-5′triphosphate] is 0.055 µM.
The same measure, in the same setting: the figure for `O=c1[nH]c(=O)n([C@@H]2O[C@H](COP(=O)(O)OP(=O)(O)OP(=O)(O)O)C[C@H]2O)cc1Cl` [COMPOUND#28, 5-Chloro-3′-deoxyuridine-5′triphosphate] is 2.1 µM.
The same measure, in the same setting: the figure for `O=c1[nH]c(=O)n([C@@H]2O[C@H](COP(=O)(O)OP(=O)(O)OP(=O)(O)O)C[C@H]2O)cc1Br` [COMPOUND#30, 5-Bromo-3′-deoxyuridine-5′triphosphate] is 2.9 µM; for `[N-]=[N+]=N[C@H]1[C@@H](O)[C@H](n2ccc(N)nc2=O)O[C@@H]1COP(=O)(O)OP(=O)(O)OP(=O)(O)O` [COMPOUND#54, 3′-azido-3′-deoxycytidine 5′triphosphate] it is 9 µM; for `Nc1nc(=O)n([C@@H]2O[C@H](COP(=O)(O)OP(=O)(O)OP(=O)(O)O)C[C@H]2O)cc1I` [COMPQUND#26, 5- = Iodp-3′-deoxycytidine-5′triphosphate] it is 0.91 µM.

Source of the values: patent publication US20040248844A1, “Method for the treatment or prevention of Flavivirus infections using nucleoside analogues” (priority 2000, published 2004).
